Measurements: ChEMBL document CHEMBL3046113, “Evaluation of fungicides and sterilants for potential application in the management of Fusarium wilt of banana” (Crop Prot, 2007)
Activity calls are given as the source filed them. The calls are words filed in the database; no cut-off is given here.

Key:
Fusarium odoratissimum [1] = test: Growth inhibition of Fusarium oxysporum f. sp. cubense race 4 isolate CAV 031 at 1 ug/ml after 7 days; format: functional, organism-based
Fusarium odoratissimum [2] = test: Growth inhibition of Fusarium oxysporum f. sp. cubense race 4 isolate CAV 031 at 50 ug/ml after 7 days; format: functional, organism-based
Fusarium odoratissimum [3] = test: Growth inhibition of Fusarium oxysporum f. sp. cubense race 4 isolate CAV 031 at 100 ug/ml after 7 days; format: functional, organism-based
Fusarium odoratissimum [4] = test: Growth inhibition of Fusarium oxysporum f. sp. cubense race 4 isolate CAV 031 at 10 ug/ml after 7 days; format: functional, organism-based
Fusarium odoratissimum [5] = test: Antifungal activity against Fusarium oxysporum f. sp. cubense race 4 incubated with 10^2 spore/ml for 5 min measured after 4 days; format: functional, organism-based
Fusarium odoratissimum [6] = test: Antifungal activity against Fusarium oxysporum f. sp. cubense race 4 at 10 times recommended dose incubated with 10^2 spore/ml for 5 min measured after 4 days; format: functional, organism-based
Fusarium odoratissimum [7] = test: Antifungal activity against Fusarium oxysporum f. sp. cubense race 4 at 0.01 times recommended dose incubated with 10^2 spore/ml for 5 min measured after 4 days; format: functional, organism-based
Fusarium odoratissimum [8] = test: Antifungal activity against Fusarium oxysporum f. sp. cubense race 4 incubated with 10^2 spore/ml for 5 to 30 min measured after 4 days; format: functional, organism-based
Fusarium odoratissimum [9] = test: Antifungal activity against Fusarium oxysporum f. sp. cubense race 4 infected in Cavendish banana plant assessed as reduction in disease severity at 25 ug a.i./ml applied as root dip treatment for 10 min measured after 7 weeks in greenhouse conditions; format: functional; design: scale not given: the % may be the effect or the level left
Fusarium odoratissimum [10] = test: Growth inhibition of Fusarium oxysporum f. sp. cubense race 4 isolate CAV 086 at 5 ug/ml after 7 days; format: functional, organism-based
Fusarium odoratissimum [11] = test: Antifungal activity against Fusarium oxysporum f. sp. cubense race 4 infected in Cavendish banana plant assessed as reduction in disease severity at 25 ug a.i./ml applied as soil drench treatment immediately after planting measured after 7 weeks in greenhouse conditions; format: functional; design: scale not given: the % may be the effect or the level left
Fusarium odoratissimum [12] = test: Antifungal activity against Fusarium oxysporum f. sp. cubense race 4 infected in Cavendish banana plant assessed as reduction in disease severity at 25 ug a.i./ml applied as soil drench treatment 1 week after planting measured after 7 weeks in greenhouse conditions; format: functional; design: scale not given: the % may be the effect or the level left
Fusarium odoratissimum [13] = test: Growth inhibition of Fusarium oxysporum f. sp. cubense race 4 isolate CAV 086 at 50 ug/ml after 7 days; format: functional, organism-based
Fusarium oxysporum [14] = test: Antifungal activity against Fusarium oxysporum infected tomato plant grown in hydroponic system applied as curative treatment relative to control; format: functional
Fusarium odoratissimum [15] = test: Growth inhibition of Fusarium oxysporum f. sp. cubense race 4 isolate CAV 086 at 1 ug/ml after 7 days; format: functional, organism-based
Fusarium odoratissimum [16] = test: Growth inhibition of Fusarium oxysporum f. sp. cubense race 4 isolate CAV 086 at 10 ug/ml after 7 days; format: functional, organism-based
Fusarium oxysporum [17] = test: Antifungal activity against Fusarium oxysporum infected tomato plant grown in hydroponic system applied as preventive treatment relative to control; format: functional

Structure (SMILES) | growth inhibition (GI) (Fusarium odoratissimum [1]) | growth inhibition (GI) (Fusarium odoratissimum [2]) | growth inhibition (GI) (Fusarium odoratissimum [3]) | growth inhibition (GI) (Fusarium odoratissimum [4]) | Activity (Fusarium odoratissimum [5]) | Activity (Fusarium odoratissimum [6]) | Activity (Fusarium odoratissimum [7]) | Activity (Fusarium odoratissimum [8]) | Activity (Fusarium odoratissimum [9]) [%] | growth inhibition (GI) (Fusarium odoratissimum [10]) | Activity (Fusarium odoratissimum [11]) [%] | Activity (Fusarium odoratissimum [12]) [%] | growth inhibition (GI) (Fusarium odoratissimum [13]) | Activity (Fusarium oxysporum [14]) [%] | growth inhibition (GI) (Fusarium odoratissimum [15]) | growth inhibition (GI) (Fusarium odoratissimum [16]) | Activity (Fusarium oxysporum [17]) [%]
CO/N=C(/C(=O)OC)c1ccccc1COc1ccccc1C | inactive | inactive | inactive | inactive |  |  |  |  |  |  |  |  |  |  |  |  | 
OCl |  |  |  |  | Dose-dependent effect | Active | inactive | Active |  |  |  |  |  |  |  |  | 
CCCC1COC(Cn2cncn2)(c2ccc(Cl)cc2Cl)O1 (stereo not drawn) [PROPICONAZOLE] |  |  | Active |  |  |  |  |  | 75 | Active | 44.4 | 52.8 |  |  |  |  | 
CO/C=C(/C(=O)OC)c1ccccc1Oc1cc(Oc2ccccc2C#N)ncn1 | inactive | inactive | inactive | inactive |  |  |  |  |  |  |  |  |  |  |  |  | 
CCCN(CCOc1c(Cl)cc(Cl)cc1Cl)C(=O)n1ccnc1 [PROCHLORAZ] | Active | Active | Active | Active | Dose-dependent effect | Active |  |  | 77.8 |  | 38.9 | 50 | Active | 34.4 | Active | Active | 69.9
CCCCNC(=O)n1c(NC(=O)OC)nc2ccccc21 [BENOMYL] |  | Active | Active | Active |  |  |  |  | 66.7 | Active | 22.2 | 72.2 |  |  |  |  | 
